# According to ChEMBL document CHEMBL3885861, “Open TG-GATES”:
# Species on record: Rattus norvegicus
# Assay: Open TG-GATES - Regimen: Single
# Format: toxicity, organism-based, Sprague-Dawley
# Set-up: regimen Single, gender Male, age 6 weeks
# Settings: in vivo, po, 5 mg/kg, route gavage, dose level Middle; for Bas / Eos / Fbg / Hb / Ht / Lym / MCHC / MCV / Mono / Neu / Plat / RBC / Ret / WBC: tissue Blood; for KIDNEY_TOTAL: tissue Kidney; for LIVER: tissue Liver; for ALT / AST / BUN / CRE / Ca / Cl / DBIL / GLC / IP / K / LDH / Na / PL / RALB / TBIL / TC / TP / gamma-GTP: tissue Plasma
compound,measurement,setting,value
C[C@@H]1C[C@H]2[C@@H]3CCC4=CC(=O)C=C[C@]4(C)[C@@]3(F)[C@@H](O)C[C@]2(C)[C@@]1(O)C(=O)CO [DEXAMETHASONE],TERMINAL_BW,3 h,210 g
same,Bas,3 h,0%
same,Eos,3 h,0.6%
same,Fbg,3 h,235.2 mg/dL
same,Hb,3 h,13.2 g/dL
same,Ht,3 h,40.3%
same,Lym,3 h,71.4%
same,MCHC,3 h,32.8%
same,MCV,3 h,65 fL
same,Mono,3 h,2.4%
same,Neu,3 h,25.6%
same,Plat,3 h,121.2 x10_4/uL
same,RBC,3 h,620.6 x10_4/ul
same,Ret,3 h,9.6%
same,WBC,3 h,46.5 x10_2/uL
same,KIDNEY_TOTAL,3 h,0.6 g
same,LIVER,3 h,10.6 g
same,ALT,3 h,41 IU/L
same,AST,3 h,77.8 IU/L
same,BUN,3 h,15 mg/dL
same,CRE,3 h,0.4 mg/dL
same,Ca,3 h,11.4 mg/dL
same,Cl,3 h,101.8 meq/L
same,DBIL,3 h,0.014 mg/dL
same,GLC,3 h,193.4 mg/dL
same,IP,3 h,11.9 mg/dL
same,K,3 h,4.1 meq/L
same,LDH,3 h,103.8 IU/L
same,Na,3 h,141.2 meq/L
same,PL,3 h,157.4 mg/dL
same,RALB,3 h,4.2 g/dL
same,TBIL,3 h,0.046 mg/dL
same,TC,3 h,91.2 mg/dL
same,TP,3 h,6 g/dL
same,gamma-GTP,3 h,0.4 IU/L
same,TERMINAL_BW,6 h,205.5 g
same,Bas,6 h,0%
same,Eos,6 h,0.6%
same,Fbg,6 h,243.6 mg/dL
same,Hb,6 h,12.9 g/dL
same,Ht,6 h,39.2%
same,Lym,6 h,59.4%
same,MCHC,6 h,32.8%
same,MCV,6 h,64.4 fL
same,Mono,6 h,3.6%
same,Neu,6 h,36.6%
same,Plat,6 h,129.5 x10_4/uL
same,RBC,6 h,609.4 x10_4/ul
same,Ret,6 h,6.7%
same,WBC,6 h,27.3 x10_2/uL
same,KIDNEY_TOTAL,6 h,0.6 g
same,LIVER,6 h,11.2 g
same,ALT,6 h,39.8 IU/L
same,AST,6 h,82.6 IU/L
same,BUN,6 h,17.2 mg/dL
same,CRE,6 h,0.4 mg/dL
same,Ca,6 h,11.6 mg/dL
same,Cl,6 h,103.2 meq/L
same,DBIL,6 h,0.01 mg/dL
same,GLC,6 h,223.8 mg/dL
same,IP,6 h,7.7 mg/dL
same,K,6 h,4.1 meq/L
same,LDH,6 h,84.4 IU/L
same,Na,6 h,138.8 meq/L
same,PL,6 h,153.6 mg/dL
same,RALB,6 h,4.5 g/dL
same,TBIL,6 h,0.036 mg/dL
same,TC,6 h,101.4 mg/dL
same,TP,6 h,6.3 g/dL
same,gamma-GTP,6 h,0 IU/L
same,TERMINAL_BW,9 h,199.5 g
same,Bas,9 h,0%
same,Eos,9 h,0.2%
same,Fbg,9 h,246 mg/dL
same,Hb,9 h,13.6 g/dL
same,Ht,9 h,41.5%
same,Lym,9 h,37%
same,MCHC,9 h,32.7%
same,MCV,9 h,64.4 fL
same,Mono,9 h,1.4%
same,Neu,9 h,61.2%
same,Plat,9 h,122.1 x10_4/uL
same,RBC,9 h,645.2 x10_4/ul
same,Ret,9 h,6%
same,WBC,9 h,18.2 x10_2/uL
same,KIDNEY_TOTAL,9 h,0.4 g
same,LIVER,9 h,10.8 g
same,ALT,9 h,39.4 IU/L
same,AST,9 h,76.8 IU/L
same,BUN,9 h,19.4 mg/dL
same,CRE,9 h,0.4 mg/dL
same,Ca,9 h,10.9 mg/dL
same,Cl,9 h,102 meq/L
same,DBIL,9 h,0.008 mg/dL
same,GLC,9 h,226 mg/dL
same,IP,9 h,7.2 mg/dL
same,K,9 h,3.9 meq/L
same,LDH,9 h,104.4 IU/L
same,Na,9 h,138.6 meq/L
same,PL,9 h,179.4 mg/dL
same,RALB,9 h,4.6 g/dL
same,TBIL,9 h,0.032 mg/dL
same,TC,9 h,118 mg/dL
same,TP,9 h,6.7 g/dL
same,gamma-GTP,9 h,0.8 IU/L
same,TERMINAL_BW,24 h,208.2 g
same,Bas,24 h,0%
same,Eos,24 h,1%
same,Fbg,24 h,232.4 mg/dL
same,Hb,24 h,13.4 g/dL
same,Ht,24 h,40.4%
same,Lym,24 h,46.8%
same,MCHC,24 h,33.1%
same,MCV,24 h,63.3 fL
same,Mono,24 h,9.2%
same,Neu,24 h,43.2%
same,Plat,24 h,136.7 x10_4/uL
same,RBC,24 h,638.4 x10_4/ul
same,Ret,24 h,5.4%
same,WBC,24 h,47.5 x10_2/uL
same,KIDNEY_TOTAL,24 h,0.4 g
same,LIVER,24 h,13.2 g
same,ALT,24 h,37.2 IU/L
same,AST,24 h,83.4 IU/L
same,BUN,24 h,17.6 mg/dL
same,CRE,24 h,0.4 mg/dL
same,Ca,24 h,11.4 mg/dL
same,Cl,24 h,99.4 meq/L
same,DBIL,24 h,0.022 mg/dL
same,GLC,24 h,205 mg/dL
same,IP,24 h,6.8 mg/dL
same,K,24 h,5.1 meq/L
same,LDH,24 h,96 IU/L
same,Na,24 h,137.8 meq/L
same,PL,24 h,249.2 mg/dL
same,RALB,24 h,4.8 g/dL
same,TBIL,24 h,0.044 mg/dL
same,TC,24 h,119.2 mg/dL
same,TP,24 h,6.8 g/dL
